In publication PMC4518100, “Design and Synthesis of New Benzimidazole and Pyrimidine Derivatives as α-glucosidase Inhibitor” (Iranian Journal of Pharmaceutical Research : IJPR, 2015):

Experiments:
[1] = test system: rat intestinal α-glucosidase; assay: Mammalian α-glucosidase inhibition assay (rat intestinal acetone powder, pNPG substrate); format: biochemical; settings: for inhibition of rat intestinal α-glucosidase (in words): qualitative statement; for IC50: rat intestinal α-glucosidase, pNPG, pH 6.9, 37 °C, na: no activity
Procedure: (§1) In this study the inhibition study of both yeast and mammalian α-glucosidase were measured through the earlier reported bioassay method with minor changes ([4]). This test was carried out using the substrate p-nitrophenyl-α-D-glucopyranoside (pNPG), which is hydrolyzed by α-glucosidase to release the product p-nitrophenol, a color agent that can be monitored at 405 nm. For yeast α-glucosidase, mixture contained 20 µL of the enzyme (0.5 unit/mL), 120 µL of 0.1 M phosphate buffer (pH 6.9) and 10 µL of test sample at various concentrations. The mixed solution was incubated in 96-well plates at 37 °C for 15 min. After preincubation the enzymatic reaction was initiated by adding 20 µL of 5 mM pNPG solution in 0.1 M phosphate buffer (pH 6.9) and the reaction mixture was incubated for another 15 min at 37 °C. The reaction was terminated by adding 80 µL of 0.2 M sodium carbonate solution and then absorbance reading was recorded at 405 nm by microplate reader. The reaction system without tested samples was used as control and the system without α-glucosidase was used as blank for correcting the background absorbance. The inhibitory rate of sample on α-glucosidase was calculated by the following formula:
(§2) % Inhibition=control absorbance-sample absorbance/control absorbance×100
The mammalian α-glucosidase were prepared from rat intestinal acetone powder (1 g), which was extracted by 25 mL of 0.1 M phosphate buffer (pH 6.9) containing 5 mM EDTA at ambient temperature. After sonication (10 min) and centrifugation (10000×g, 20 min) the obtained supernatant was dialyzed against […] phosphate buffer (pH 6.9) for 24 h. The final supernatant was used for the assay. The mammalian α-glucosidase inhibition test was carried out in the same manner as that of the yeast α-glucosidase.

[2] = molecular target: yeast α-glucosidase (Saccharomyces cerevisiae, UniProt P53341); assay: Yeast α-glucosidase inhibition assay (pNPG substrate, absorbance at 405 nm); format: biochemical; settings: qualitative statement
Procedure: as §1, §2

Chain of yeast α-glucosidase (P53341 whole entry): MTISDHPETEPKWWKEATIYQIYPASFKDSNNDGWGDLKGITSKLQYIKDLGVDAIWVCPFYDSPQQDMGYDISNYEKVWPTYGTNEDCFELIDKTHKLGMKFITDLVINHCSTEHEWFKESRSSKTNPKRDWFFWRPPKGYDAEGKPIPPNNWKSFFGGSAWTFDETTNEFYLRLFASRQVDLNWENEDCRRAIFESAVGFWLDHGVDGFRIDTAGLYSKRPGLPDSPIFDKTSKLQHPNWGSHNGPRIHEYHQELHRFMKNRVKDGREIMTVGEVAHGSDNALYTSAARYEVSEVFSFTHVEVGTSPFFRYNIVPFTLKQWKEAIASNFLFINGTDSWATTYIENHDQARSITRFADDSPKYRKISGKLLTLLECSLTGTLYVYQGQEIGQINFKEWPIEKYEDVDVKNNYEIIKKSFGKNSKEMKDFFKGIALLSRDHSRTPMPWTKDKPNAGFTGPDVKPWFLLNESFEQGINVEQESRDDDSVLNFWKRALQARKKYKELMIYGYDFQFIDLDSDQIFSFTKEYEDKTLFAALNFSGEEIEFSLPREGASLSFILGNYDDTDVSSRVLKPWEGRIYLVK

SMILES | inhibition of rat intestinal α-glucosidase (in words) [1] | IC50 [1] | inhibition of yeast α-glucosidase (in words) [2]
O=C1c2ccccc2C(=O)N1C(Cc1ccccc1)c1nc2ccccc2[nH]1 (stereo not shown) [4c, 2-(1-(1H-benzo(d)imidazol-2-yl)-2-phenylethyl)isoindoline-1,3-dione] | significantly higher inhibitory action than acarbose | 48.5 ± 2.3 µM | significantly higher inhibitory action than acarbose
O=C1c2ccccc2C(=O)N1C(Cc1ccc(O)cc1)c1nc2ccccc2[nH]1 (stereo not shown) [4d, 2-(1-(1H-benzo(d)imidazol-2-yl)-2-(4-hydroxyphenyl)ethyl)isoindoline-1,3-dione] | significantly higher inhibitory action than acarbose | 36.7 ± 2.9 µM | significantly higher inhibitory action than acarbose
O=C1c2ccccc2C(=O)N1CC1=Nc2cccc3cccc(c23)N1 [5a, 2-((1H-perimidin-2-yl)methyl)isoindoline-1,3-dione] | did not exert good inhibition activity | – | did not exert good inhibition activity
CCC(C)C(C1=Nc2cccc3cccc(c23)N1)N1C(=O)c2ccccc2C1=O (stereo not shown) [5b, 2-(2-methyl-1-(1H-perimidin-2-yl)butyl)isoindoline-1,3-dione] | did not exert good inhibition activity | – | did not exert good inhibition activity
O=C1c2ccccc2C(=O)N1C(Cc1ccccc1)C1=Nc2cccc3cccc(c23)N1 (stereo not shown) [5c, 2-(1-(1H-perimidin-2-yl)-2-phenylethyl)isoindoline-1,3-dione] | significantly higher inhibitory action than acarbose | 35.9 ± 2.3 µM | significantly higher inhibitory action than acarbose
O=C1c2ccccc2C(=O)N1C(Cc1ccc(O)cc1)C1=Nc2cccc3cccc(c23)N1 (stereo not shown) [5d, 2-(2-(4-hydroxyphenyl)-1-(1H-perimidin-2-yl)ethyl)isoindoline-1,3-dione] | significantly higher inhibitory action than acarbose | 21.8 ± 1.7 µM | significantly higher inhibitory action than acarbose
CC(C)CC(C1=Nc2cccc3cccc(c23)N1)N1C(=O)c2ccccc2C1=O (stereo not shown) [5e, 2-(3-methyl-1-(1H-perimidin-2-yl)butyl)isoindoline-1,3-dione] | did not exert good inhibition activity | – | did not exert good inhibition activity
C[C@H]1O[C@H](O[C@H]2[C@H](O)[C@@H](O)[C@@H](O[C@H]3[C@H](O)[C@@H](O)C(O)O[C@@H]3CO)O[C@@H]2CO)[C@H](O)[C@@H](O)[C@@H]1N[C@H]1C=C(CO)[C@@H](O)[C@H](O)[C@H]1O (stereo partly shown) [Acarbose, reference compound] | – | 37.5 ± 1.4 µM | –
